The target in data set [1] is T1, iminosuccinate reductase (ISRed) (Paracoccus denitrificans, UniProt A1B8Z0).
T1 construct: His-tag (N); made in house; host or cells: E. coli BL21 AI
Nature of the data set: Enzyme assay, apparent kinetic parameters of ISRed. In kind it is biochemical, Paracoccus denitrificans DSM 413. The note with it: 30° C.; for Km: pH 7.5, cofactors measured with 2 mM (2R,3S)-β-hydroxyaspartate and BHAD, read-out: app. KM. The protocol:
(§1) In all enzyme assays, the oxidation of NADH or NADPH was followed at 340 nm or 360 nm on a Cary 60 UV-Vis photospectrometer (Agilent, Santa Clara, USA) in quartz cuvettes with a path length of 1 mm or 10 mm (Hellma Optik GmbH, Jena, Germany).
The enzyme assay to determine the apparent kinetic parameters of ISRed was performed at 30° C. in a total volume of 250 μL. The reaction mixture contained 100 mM potassium phosphate buffer pH 7.5, 0.2 mM NADH, 0.1 mM PLP, varying amounts of (2R,3S)-β-hydroxyaspartate, and appropriate amounts of the enzymes BHAD and ISRed. Kinetics for iminosuccinate were measured with 15 nM ISRed, and appropriate amounts of (2R,3S)-β-hydroxyaspartate and BHAD to generate the desired concentrations of iminosuccinate at the onset of the reaction. Kinetics for NADH and NADPH were measured with 2 mM (2R,3S)-β-hydroxyaspartate, 214 nM BHAD, 28 nM ISRed, and varying amounts of the respective cofactor.

The target of data set [2] is T2, aspartate-glyoxylate aminotransferase (AGAT) (Paracoccus denitrificans, UniProt A1B8Z3).
T2 construct: His-tag (N); made in house; host or cells: E. coli BL21 AI
T2 sequence (A1B8Z3 1-396): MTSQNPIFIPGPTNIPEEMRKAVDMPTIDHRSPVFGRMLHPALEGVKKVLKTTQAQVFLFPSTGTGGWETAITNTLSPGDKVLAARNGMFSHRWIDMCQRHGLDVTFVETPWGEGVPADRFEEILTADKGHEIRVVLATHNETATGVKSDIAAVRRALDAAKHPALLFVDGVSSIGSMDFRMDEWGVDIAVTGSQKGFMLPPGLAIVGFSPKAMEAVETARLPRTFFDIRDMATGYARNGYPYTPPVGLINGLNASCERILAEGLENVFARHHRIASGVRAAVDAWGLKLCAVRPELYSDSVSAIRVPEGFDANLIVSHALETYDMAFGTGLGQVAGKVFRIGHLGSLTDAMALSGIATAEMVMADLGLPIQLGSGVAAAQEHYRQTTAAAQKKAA
Nature of the data set: Enzyme assay, kinetic parameters of AGAT. Type of data set: biochemical, Paracoccus denitrificans DSM 413. The following applies: 30° C., pH 7.5, co-substrate fixed (20 mM L-aspartate, 5 mM glyoxylate, 20 mM oxaloacetate or 30 mM glycine); for Km: read-out: app. KM. The protocol:
as §1
(§2) The enzyme assay to determine the kinetic parameters of AGAT with glyoxylate and L-aspartate as substrates was performed at 30° C. in a total volume of 300 μl. The reaction mixture contained 100 mM potassium phosphate buffer pH 7.5, 0.1 mM PLP, 0.2 mM NADH, varying amounts of the respective substrates, and 32 nM AGAT. Mdh was added in excess as coupling enzyme to convert oxaloacetate into malate. Kinetics for glyoxylate were measured with 20 mM L-aspartate; kinetics for L-aspartate were measured with 5 mM glyoxylate. To determine the kinetic parameters with oxaloacetate and glycine as substrates, the same assay mixture was used and GhrA was added in excess as coupling enzyme to convert glyoxylate into glycolate. […] To determine the kinetic parameters with L-serine or L-glutamate and glyoxylate as substrates, the same assay mixture was used and BHAD, BHAA, and Mdh were added in excess as coupling enzymes. Kinetics for L-serine and L-glutamate were measured with 5 mM glyoxylate.

A further data set has as its system Pbhc-BhcR complex. Nature of the data set: Electrophoretic mobility shift assay, effect of glyoxylate on complex formation. Type of data set: binding, P. denitrificans DSM 413. The following applies: increasing concentrations of glyoxylate (0.01-1 mM), EMSA, FIG. 5. The text has this: Fluorescently labeled DNA fragments for electrophoretic mobility shift assays (EMSA) were generated by PCR from genomic DNA of P. denitrificans DSM 413. For the Pbhc regulatory region, primers Pbhc_fw and Pbhc_rev-dye were used to generate a 238-bp fragment containing the putative Pbhc promoter. The primers AGAT-Fw and AGAT_rev-dye were used to generate a 255-bp fragment containing a fragment of the AGAT gene as negative controle. Pbhc rev dye and AGAT rev dye were 5′-labelled with the Dyomics 781 fluorescent dye (Microsynth AG, Balgach, Switzerland). Binding reactions between the DNA fragments (0.025 pmol), various amounts of the purified protein BhcR (400x/2,000x/4,000x/10,000x/20,000x/40,000x molar excess), and various concentrations of glyoxylate (0.01/0.05/0.1/0.2/0.5/1 mM final concentration) were performed in buffer A (20 mM potassium phosphate pH 7.0, 1 mM DTT, 5 mM MgCl2, 50 mM KCl, 15 μg mL^−1 bovine serum albumin, 50 μg mL^−1 herring sperm DNA, 5% v/v glycerol, 0.1% Tween20) in a total volume of 20 μL. After incubation of the reaction mixtures at 37° C. for 20 min, the samples were loaded onto a native 5% polyacrylamide gel and electrophoretically separated at 110 V for 60 min. BhcR:DNA-interactions were detected using an Odyssey FC Imaging System (LI-COR Biosciences, Lincoln, USA).

The target in data set [3] is T3, β-hydroxyaspartate aldolase (BHAA) (Paracoccus denitrificans, UniProt A1B8Z1).
T3 construct: His-tag (N); made in house; host or cells: E. coli BL21 AI
T3 sequence (A1B8Z1 1-387): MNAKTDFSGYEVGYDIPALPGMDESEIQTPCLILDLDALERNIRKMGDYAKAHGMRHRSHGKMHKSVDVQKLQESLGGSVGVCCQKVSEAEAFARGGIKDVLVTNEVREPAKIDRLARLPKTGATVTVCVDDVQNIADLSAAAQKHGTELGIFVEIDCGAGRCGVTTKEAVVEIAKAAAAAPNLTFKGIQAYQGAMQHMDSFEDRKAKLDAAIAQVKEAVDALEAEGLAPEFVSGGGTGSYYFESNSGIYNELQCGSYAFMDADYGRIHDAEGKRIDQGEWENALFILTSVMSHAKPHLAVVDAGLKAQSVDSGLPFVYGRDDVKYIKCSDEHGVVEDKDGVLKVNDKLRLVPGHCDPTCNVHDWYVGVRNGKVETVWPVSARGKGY
Nature of the data set: Enzyme assay, kinetic parameters of BHAA. Type of data set: biochemical, Paracoccus denitrificans DSM 413. The note with it: 30° C., pH 7.5, glycine with 5 mM glyoxylate, glyoxylate with 20 mM glycine. The protocol: as §1
The reaction mixture contained 100 mM potassium phosphate buffer pH 7.5, 0.1 mM PLP, 0.2 mM NADH, 0.5 mM MgCl2, varying amounts of the respective substrates, and 4 nM BHAA. BHAD and ISRed were added in excess as coupling enzymes. […] To determine the kinetic parameters with (2R,3S)-β-hydroxyaspartate as substrate, the same assay mixture was used and GhrA was added in excess as coupling enzyme to convert glyoxylate into glycolate. To determine the kinetic parameters with D-threonine as substrate, the same assay mixture was used and alcohol dehydrogenase from Saccharomyces cerevisiae (Sigma-Aldrich, St. Louis, USA) was added in excess as coupling enzyme to convert acetaldehyde into ethanol.

In data set [4] the target is T4, β-hydroxyaspartate dehydratase (BHAD) (Paracoccus denitrificans, UniProt A1B8Z2).
T4 construct: His-tag (N); made in house; host or cells: E. coli BL21 AI
Nature of the data set: Enzyme assay, kinetic parameters of BHAD. In kind it is biochemical, Paracoccus denitrificans DSM 413. The note with it: 30° C., pH 7.5, ISRed as coupling enzyme. The protocol: as §1
The enzyme assay to determine the kinetic parameters of BHAD was performed at 30° C. in a total volume of 300 μl. The reaction mixture contained 100 mM phosphate buffer pH 7.5, 0.1 mM PLP, 0.2 mM NADH, varying amounts of the substrate (2R,35)-β-hydroxyaspartate, and 29 nM BHAD. ISRed was added in excess as coupling enzyme to convert iminosuccinate into L-aspartate. (2R,3S)-β-Hydroxyaspartate was custom-synthesized by NewChem (Newcastle upon Tyne, United Kingdom), and was determined to be >95% pure by NMR analysis.

In data set [5] the test system is expression levels of enzymes of the BHAP. Nature of the data set: Whole-cell shotgun proteomics, glycolate-grown vs. acetate-grown cells. Type of data set: cell-based, P. denitrificans. The following applies: cells grown on 60 mM glycolate compared to 60 mM acetate, FIG. 4. The protocol: To acquire the proteome of P. denitrificans growing on different carbon sources, 20 mL cultures were grown to mid-exponential phase (OD600 ˜0.5) in minimal medium supplemented with 60 mM acetate or 60 mM glycolate. 4 replicate cultures were grown for each carbon source. Main cultures were inoculated from precultures grown in the same medium in a 1:1,000 dilution. Cultures were harvested by centrifugation at 4,000× g and 4° C. for 15 min. Supernatant was discarded and pellets were washed in 40 mL phosphate buffered saline (PBS; 137 mM NaCl, 2.7 mM KCl, 10 mM Na2HPO4, 1.8 mM KH2PO4, pH 7.4). […] Cell pellets in Eppendorf tubes were snap-frozen in liquid nitrogen and stored at −80° C. until they were used for the preparation of samples for LC-MS analysis and label-free quantification.
For whole cell lysis, cell pellets were first resuspended in 200 μL NH4HCO3 (100 mM supplemented with 5% SDS). […] Protein concentration in samples was determined via Pierce™ BCA assay (Thermo Scientific). […] Peptide mixes were recovered in 2% DMSO and then in 0.5% trifluoracetic acid (TFA) and analyzed via LC-MS on an electrospray ion source-connected Thermo QExactive Plus mass spectrometer (Thermo Scientific). […] Label-free data quantification was performed according to (Nature 2011, 473, 337; Proteomics 2013, 13, 2567; and J Proteome Res 2015, 14, 4472). […]

Substrate in data set [6]: NCC(=O)O
Nature of the data set: purified protein, by the assay type. The following applies: other: enzyme AGAT, 30° C., pH 7.5, co-substrate fixed (20 mM L-aspartate, 5 mM glyoxylate, 20 mM oxaloacetate or 30 mM glycine).

Substrate in data set [7]: O=C(O)CC(=O)C(=O)O
Nature of the data set: Enzyme assay, kinetic parameters of AGAT. In kind it is biochemical, Paracoccus denitrificans DSM 413. The note with it: other: enzyme AGAT, 30° C., pH 7.5, co-substrate fixed (20 mM L-aspartate, 5 mM glyoxylate, 20 mM oxaloacetate or 30 mM glycine). The protocol:
as §1, §2

Substrate in data set [8]: N[C@@H](CO)C(=O)O
Nature of the data set: Enzyme assay, kinetic parameters of AGAT. In kind it is biochemical, Paracoccus denitrificans DSM 413. The note with it: other: enzyme AGAT, 30° C., pH 7.5, co-substrate fixed (20 mM L-aspartate, 5 mM glyoxylate, 20 mM oxaloacetate or 30 mM glycine). The protocol: as §1, §2

Substrate in data set [9]: O=CC(=O)O
Nature of the data set: Enzyme assay, kinetic parameters of AGAT. The note with it: other: enzyme AGAT, 30° C., pH 7.5, co-substrate fixed (20 mM L-aspartate, 5 mM glyoxylate, 20 mM oxaloacetate or 30 mM glycine). In kind it is biochemical, Paracoccus denitrificans DSM 413. The protocol: as §1, §2

The values below come from US11939583B2, “Method of producing autotrophic organisms with altered photorespiration and improved CO2 fixation” (Max-Planck-Gesellschaft zur Förderung der Wissenschaften …, priority 2018, dated 2024).

Usually Km stands for the concentration of substrate that gives half-maximal velocity. With NADPH, in data set [1], the Michaelis-Menten constant (Km) was 330 ± 50 µM.

For the molecule `NC(=O)C1=CN([C@@H]2O[C@H](COP(=O)(O)OP(=O)(O)OC[C@H]3O[C@@H](n4cnc5c(N)ncnc54)[C@H](O)[C@@H]3O)[C@@H](O)[C@H]2O)C=CC1` [NADH], in [1], the Michaelis-Menten constant (Km) was determined as 23 ± 3 µM.

Turning to `N[C@@H](CC(=O)O)C(=O)O` [L-Aspartate], in data set [2], the app. kcat was 56.36 ± 0.73 s⁻¹ and the Km is 2510 ± 100 µM.

With `N[C@@H](CCC(=O)O)C(=O)O` [L-Glutamate], in data set [2], the app. kcat is 5.03 ± 0.26 s⁻¹ and the Km stood at 20600 ± 2330 µM.

As for `O=CC(=O)O` [Glyoxylate], in the data set on Pbhc-BhcR complex, the “effect on binding of BHAR to the promoter region” value is listed as “binding was decreased”.

Consider `N=C(CC(=O)O)C(=O)O` [Iminosuccinate], for which the Km in data set [1] worked out at 88 ± 10 µM. In data set [1] (pH 7.5, iminosuccinate generated from (2R,3S)-β-hydroxyaspartate by BHAD), the app. kcat came out at 201.04 ± 10.20 s⁻¹.

Turning to `N[C@@H](C(=O)O)[C@H](O)C(=O)O` [(2R,3S)-β-hydroxyaspartate], the app. kcat in [3] was 33.11 ± 1.29 s⁻¹; in data set [4], 35.01 ± 0.82 s⁻¹. The Km in data set [3] (read-out: app. KM) came out at 280 ± 30 µM; in data set [4] (read-out: app. KM), 200 ± 20 µM.

In the case of `O=C(O)CO` [glycolate], in data set [5], the “expression of all four enzymes of the BHAP” value was “strongly increased expression”.

B1: aspartate-glyoxylate aminotransferase (AGAT) (Paracoccus denitrificans PD1222) (protein)
chain: MTSQNPIFIPGPTNIPEEMRKAVDMPTIDHRSPVFGRMLHPALEGVKKVLKTTQAQVFLFPSTGTGGWETAITNTLSPGDKVLAARNGMFSHRWIDMCQRHGLDVTFVETPWGEGVPADRFEEILTADKGHEIRVVLATHNETATGVKSDIAAVRRALDAAKHPALLFVDGVSSIGSMDFRMDEWGVDIAVTGSQKGFMLPPGLAIVGFSPKAMEAVETARLPRTFFDIRDMATGYARNGYPYTPPVGLINGLNASCERILAEGLENVFARHHRIASGVRAAVDAWGLKLCAVRPELYSDSVSAIRVPEGFDANLIVSHALETYDMAFGTGLGQVAGKVFRIGHLGSLTDAMALSGIATAEMVMADLGLPIQLGSGVAAAQEHYRQTTAAAQKKAA
notes: His-tag (N); made in house; host or cells: E. coli BL21 AI
In general, kcat refers to the number of substrate molecules converted per active site and unit of time at saturation. What is called kcat/Km is the second-order rate constant that governs catalysis at low substrate concentration. As to B1, the Km in data set [6] came out at 9520 ± 400 µM; in [7], 2900 ± 270 µM; in data set [8], 2100 ± 240 µM; in data set [9], 430 ± 20 µM. In addition, the kcat amounted to 0.76 s⁻¹ in data set [6], 0.76 ± 0.02 s⁻¹ in data set [7], 8.82 ± 0.31 s⁻¹ in data set [8] and 58.1 ± 0.82 s⁻¹ in [9]. In addition, the catalytic efficiency (kcat/Km) in [6] came out at 79.7 M⁻¹ s⁻¹; in [7], 262 M⁻¹ s⁻¹; in [8], 4200 M⁻¹ s⁻¹; in data set [9], 134000 M⁻¹ s⁻¹.
